This is an account of results in ChEMBL document CHEMBL3758170, “From indole to pyrrole, furan, thiophene and pyridine: Search for novel small molecule inhibitors of bacterial transcription initiation complex formation” (Bioorg Med Chem, 2016).

Data set [1] relates to Bacillus subtilis. In words: Antibacterial activity against Bacillus subtilis 168 assessed as growth inhibition at 200 uM measured every 10 mins for 16 hrs by FLUOstar Optima plate reader analysis relative to control. To be noted: for inhibition of growth at 200 µM: read-out: GI. The class given is functional.
In the next data set the test system is Escherichia coli. Briefly: Antibacterial activity against Escherichia coli DH5[alpha] assessed as growth inhibition at 200 uM measured every 10 mins for 16 hrs by FLUOstar Optima plate reader analysis relative to control. The settings on record: for inhibition of growth at 200 µM: read-out: GI. The format is functional.
The subject of a further data set is BL21-DE3. Briefly: Inhibition of Bacillus subtilis C-terminal GST-tagged RNAP beta'-CH expressed in Escherichia coli BL21 (DE3) cells binding interaction with Escherichia coli sigma-70/Bacillus subtilis full length SigmaA2.2 expressed in Escherichia coli C41 (DE3) cells using TMB as substrate at 15 uM preincubated for 1 hr followed by substrate addition by ELISA relative to control. A general note: In an ELISA, binding on a coated surface is turned into a signal by an enzyme label.

Data set [2] in a line: Solubility of compound in Luria-Bertani medium at 200 uM. The class given is physicochemical.
Data set [3] relates to Bacillus subtilis. Briefly: Antibacterial activity against Bacillus subtilis 168 assessed as inhibition of exponential phase of bacterial growth at 200 uM measured every 10 mins for 16 hrs by FLUOstar Optima plate reader analysis relative to control. The format is functional. The settings on record: read-out: GI.

The structures appear in SMILES notation. Calls of active or inactive are those of the source. The rule behind the calls is not given here.

As to `O=C(N/N=C/c1ccc[nH]1)c1ccncc1Br`, the “growth inhibition (GI)” value with Bacillus subtilis [1] is “inactive”. Further, the inhibition of growth at 200 µM in the data set with Escherichia coli came out at 7%. For the same compound, in the data set on BL21-DE3, the inhibition – broadly, the share of the control response that was lost under treatment – amounted to 9%. For the same compound, in data set [2], the solubility result is “soluble”.
For `O=C(N/N=C/c1cccs1)c1ccnc(Br)c1`, the results for the inhibition of growth at 200 µM with Bacillus subtilis [1] and in the data set on Escherichia coli were 35% and 59%, respectively. Also, the inhibition in the data set on BL21-DE3 came to 6%. In addition, the solubility entry in data set [2] was “soluble”.
Turning to `COc1cc(OC)c2c(-c3ccc(Br)cc3)c[nH]c2c1C(=O)NNC(=O)c1ccnc(Cl)c1`, in the data set with Bacillus subtilis [1], the “growth inhibition (GI)” value was “inactive”. Moreover, the inhibition of growth at 200 µM in the data set on Escherichia coli amounted to 15%. The compound also displayed an inhibition with BL21-DE3 of 17%. For the same compound, in data set [2], the solubility result is recorded as “soluble”.
Take `COc1cc(OC)c2c(-c3ccc(Cl)cc3)c[nH]c2c1C(=O)NNC(=O)c1ccc[nH]1`: the “growth inhibition (GI)” value with Bacillus subtilis [1] and in the data set with Escherichia coli was “inactive” throughout. In addition, in the data set with BL21-DE3, the inhibition result was “inactive”. The solubility entry in data set [2] is listed as “soluble”.
Regarding `COc1cc(OC)c2c(C)c(C(=O)NNC(=O)c3c(OC)cc(OC)c4c(-c5ccc(Cl)cc5)c[nH]c34)[nH]c2c1`, the inhibition of growth at 200 µM in the data set with Escherichia coli was determined as 45%. In the data set with BL21-DE3, this compound displayed an inhibition of 72%.
For `COc1cc(OC)c2c(-c3ccc(Br)cc3)c[nH]c2c1C(=O)N/N=C/c1cccs1`, in the data set on Bacillus subtilis [1], the “growth inhibition (GI)” value is “inactive”. For the same compound, in the data set on Escherichia coli, the inhibition of growth at 200 µM is 29%. Also, the inhibition result in the data set on BL21-DE3 was “inactive”. Moreover, the solubility result in data set [2] was “soluble”.
For `COc1cc(OC)c2c(-c3ccc(Cl)cc3)c[nH]c2c1C(=O)N/N=C/c1cccs1`, the “growth inhibition (GI)” value in the data set with Bacillus subtilis [1] and in the data set on Escherichia coli was “inactive” each time. For the same compound, the inhibition with BL21-DE3 was determined as 38%. Further, in data set [2], the solubility entry is “soluble”.
As for `CO[C@H]1/C=C/O[C@@]2(C)Oc3c(C)c(O)c4c(O)c(c(/C=N/N5CCN(C)CC5)c(O)c4c3C2=O)NC(=O)/C(C)=C\C=C\[C@H](C)[C@H](O)[C@@H](C)[C@@H](O)[C@@H](C)[C@H](OC(C)=O)[C@@H]1C` [RIFAMPIN], the inhibition of growth at 200 µM in the data set on Bacillus subtilis [1] turned out to be 100%; in the data set with Escherichia coli, 98%.
Take `O=C(N/N=C/c1cc(Br)cs1)c1cccs1`: the “growth inhibition (GI)” value in the data set with Bacillus subtilis [1] was “inactive”. The inhibition of growth at 200 µM in the data set with Escherichia coli came out at 23%. The compound further came in with an inhibition with BL21-DE3 of 36%. In addition, the solubility entry in data set [2] is given as “soluble”.
For the compound `O=C(N/N=C/c1ccc[nH]1)c1ccnc(Br)c1`, in the data set with Bacillus subtilis [1], the “growth inhibition (GI)” value is “inactive”. For the same compound, the inhibition of growth at 200 µM with Escherichia coli stood at 53%. In addition, the inhibition in the data set with BL21-DE3 was determined as 8%. In addition, the solubility entry in data set [2] was “soluble”.
Take `COc1cc(OC)c2c(-c3ccc(Br)cc3)c[nH]c2c1C(=O)NNC(=O)c1ccncc1Br`: the figures for the inhibition of growth at 200 µM in the data set with Bacillus subtilis [3] and in the data set on Escherichia coli were 52% and 14%, respectively. The inhibition with BL21-DE3 worked out at 3%. Also, the solubility result in data set [2] is given as “soluble”.
On to `O=C(N/N=C/c1cc(Br)cs1)c1ccco1`, for which the “growth inhibition (GI)” value in the data set on Bacillus subtilis [1] was “inactive”. For the same compound, in the data set on Escherichia coli, the inhibition of growth at 200 µM turned out to be 7%. The inhibition entry in the data set on BL21-DE3 was “inactive”. The solubility result in data set [2] is reported as “soluble”.
Take `O=C(N/N=C/c1ccc[nH]1)c1cccs1`: the inhibition of growth at 200 µM was determined as 33% with Bacillus subtilis [1] and 22% with Escherichia coli. Also, in the data set with BL21-DE3, the inhibition worked out at 34%. Further, in data set [2], the solubility result is reported as “soluble”.
On the same counts, the results for `O=C(N/N=C/c1ccc[nH]1)c1ccc[nH]1` are 30%, 21%, 41% and “soluble”.
With `COc1cnc(Cl)cc1C(=O)NNC(=O)c1c(OC)cc(OC)c2c(-c3ccc(Br)cc3)c[nH]c12`, the figures for the inhibition of growth at 200 µM with Bacillus subtilis [1] and in the data set on Escherichia coli were 13% and 24%, respectively. In the data set with BL21-DE3, this compound displayed an inhibition of 17%. Further, the solubility result in data set [2] was “soluble”.
In the same order, the values of `O=C(N/N=C/c1cccs1)c1ccncc1Br` are 11%, 18%, 8% and “soluble”.
On the same counts, the results for `COc1cc(OC)c2c(-c3ccc(Cl)cc3)c[nH]c2c1C(=O)NNC(=O)c1ccnc(Cl)c1` are 17%, 10%, 14% and “soluble”.
In the case of `COc1cc(OC)c2c(-c3ccc(Br)cc3)c[nH]c2c1C(=O)NNC(=O)c1ccc[nH]1`, the “growth inhibition (GI)” value in the data set with Bacillus subtilis [1] and with Escherichia coli was “inactive” in each case. In addition, the inhibition entry in the data set with BL21-DE3 was “inactive”. Also, the solubility result in data set [2] was “soluble”.
On to `O=C(N/N=C/c1cccs1)c1ccco1`, for which the “growth inhibition (GI)” value with Bacillus subtilis [1] was “inactive”. The inhibition of growth at 200 µM with Escherichia coli stood at 23%. In the data set with BL21-DE3, the inhibition worked out at 29%.
On to `O=C(N/N=C/c1ccco1)c1ccnc(Cl)c1`, for which the “growth inhibition (GI)” value in the data set with Bacillus subtilis [1] is “inactive”. In addition, the inhibition of growth at 200 µM in the data set on Escherichia coli was 3%. The compound also came in with an inhibition in the data set on BL21-DE3 of 32%. In data set [2], the solubility result is on record as “soluble”.
For the compound `COc1cc(OC)c2c(-c3ccc(Cl)cc3)c[nH]c2c1C(=O)NNC(=O)c1c(OC)cc(OC)c2c(-c3ccc(Cl)cc3)c[nH]c12`, the inhibition of growth at 200 µM with Bacillus subtilis [1] came out at 30%. Also, the inhibition in the data set with BL21-DE3 came out at 63%.
For `COc1cc(OC)c2c(-c3ccc(Br)cc3)c[nH]c2c1C(=O)N/N=C/c1ccco1`, the “growth inhibition (GI)” value with Bacillus subtilis [1] was “inactive”. Besides, in the data set with Escherichia coli, the inhibition of growth at 200 µM was 16%. Besides, the inhibition in the data set with BL21-DE3 came to 33%. The solubility entry in data set [2] is given as “soluble”.
`O=C(N/N=C/c1ccc[nH]1)c1ccco1`: the “growth inhibition (GI)” value in the data set with Bacillus subtilis [1] and with Escherichia coli was “inactive” each time. This compound came in with an inhibition with BL21-DE3 of 21%. The solubility result in data set [2] is given as “soluble”.
As for `O=C(N/N=C/c1ccco1)c1ccco1`, the “growth inhibition (GI)” value with Bacillus subtilis [1] is “inactive”. The inhibition of growth at 200 µM in the data set with Escherichia coli was 18%. Besides, the inhibition in the data set on BL21-DE3 was found to be 3%. The solubility result in data set [2] was “soluble”.
Turning to `COc1cc(OC)c2c(-c3ccc(Br)cc3)c[nH]c2c1C(=O)N/N=C/c1ccc[nH]1`, the “growth inhibition (GI)” value with Bacillus subtilis [1] and with Escherichia coli was “inactive” in each case. The same compound displayed an inhibition in the data set on BL21-DE3 of 46%. For the same compound, in data set [2], the solubility result is “soluble”.
On to `COc1cc(OC)c2c(-c3ccc(Br)cc3)c[nH]c2c1C(=O)NNC(=O)c1cccs1`, for which the “growth inhibition (GI)” value in the data set with Bacillus subtilis [1] and in the data set on Escherichia coli was “inactive” throughout. Besides, in the data set with BL21-DE3, the inhibition entry is “inactive”. In data set [2], the solubility entry is given as “soluble”.
On to `COc1cc(OC)c2c(-c3ccc(Cl)cc3)c[nH]c2c1C(=O)NNC(=O)c1cccs1`, for which the “growth inhibition (GI)” value with Bacillus subtilis [1] and in the data set with Escherichia coli was “inactive” throughout. Further, the inhibition result with BL21-DE3 was “inactive”. The solubility result in data set [2] is “soluble”.
Take `O=C(N/N=C/c1ccc[nH]1)c1ccnc(Cl)c1`: the inhibition of growth at 200 µM is 6% in the data set on Bacillus subtilis [1] and 22% with Escherichia coli. This compound also came in with an inhibition with BL21-DE3 of 31%. The solubility entry in data set [2] is given as “soluble”.
With `O=C(N/N=C/c1ccco1)c1ccc[nH]1`, the “growth inhibition (GI)” value in the data set on Bacillus subtilis [1] is “inactive”. In the data set on Escherichia coli, the inhibition of growth at 200 µM turned out to be 3%. In the data set on BL21-DE3, the inhibition worked out at 8%. In data set [2], the solubility result is on record as “soluble”.
